The source made the active and inactive calls. The rule behind the calls is not given here.
Assays:
[1] = Pro-inflammatory activity in mouse peritoneal macrophage assessed as increased NO production at 1000 ug/mL after 10 mins using Griess reagent by spectrophotometry in presence of LPS; type: ADME, cell-based; settings: peritoneal macrophage cell
[2] = Antiinflammatory activity in mouse peritoneal macrophage assessed as increase in LPS-stimulated TNFalpha release at 100 to 1000 ug/mL after 24 hrs by ELISA relative to control in presence of LPS; type: functional, Peritoneal macrophage cell
[3] = Antiinflammatory activity in mouse peritoneal macrophage assessed as decreased LPS-stimulated NO production at 0.01 to 1 ug/mL after 10 mins using Griess reagent by spectrophotometry; type: functional, Peritoneal macrophage cell
[4] = target: Transcription factor p65 (Mus musculus) (UniProt Q04207); assay: Increase in NF-kappaB p65 nuclear translocation in LPS-stimulated mouse peritoneal macrophage at 1000 ug/mL after 24 hrs by nuclear absorbance assay
[5] = target: Transcription factor p65 (Mus musculus) (UniProt Q04207); assay: Inhibition of NF-kappaB p65 nuclear translocation in LPS-stimulated mouse peritoneal macrophage at 10 to 500 ug/mL after 24 hrs by nuclear absorbance assay
[6] = target: Transcription factor p65 (Mus musculus) (UniProt Q04207); assay: Inhibition of NF-kappaB p65 nuclear translocation in LPS-stimulated mouse peritoneal macrophage at 0.01 to 10 ug/mL after 24 hrs by nuclear absorbance assay
[7] = system: Peritoneal macrophage cell; assay: Antiinflammatory activity in mouse peritoneal macrophage assessed as decrease in LPS-stimulated TNFalpha release at 0.01 to 10 ug/mL after 24 hrs by ELISA relative to control in presence of LPS; type: functional, cell-based
[8] = Antiinflammatory activity in mouse peritoneal macrophage assessed as decreased LPS-stimulated NO production at 10 to 500 ug/mL after 10 mins using Griess reagent by spectrophotometry; type: functional, Peritoneal macrophage cell
Mus musculus = assay: Antiinflammatory activity against Swiss mouse assessed as inhibition of 12-O-tetradecanoylphorbol acetate-induced ear edema at 1 mg/ear, topically administered measured after 4 hrs of 12-O-tetradecanoylphorbol acetate-challenge; type: functional
Rattus norvegicus = assay: Antiinflammatory activity against Sprague-Dawley rat assessed as inhibition of carrageenan-induced paw edema at 10 mg/kg, ip administered 30 mins prior to carrageenan challenge measured after 5 hrs; type: functional; settings: route intraperitoneal

Chain of Transcription factor p65 (Mus musculus) (Q04207 whole entry): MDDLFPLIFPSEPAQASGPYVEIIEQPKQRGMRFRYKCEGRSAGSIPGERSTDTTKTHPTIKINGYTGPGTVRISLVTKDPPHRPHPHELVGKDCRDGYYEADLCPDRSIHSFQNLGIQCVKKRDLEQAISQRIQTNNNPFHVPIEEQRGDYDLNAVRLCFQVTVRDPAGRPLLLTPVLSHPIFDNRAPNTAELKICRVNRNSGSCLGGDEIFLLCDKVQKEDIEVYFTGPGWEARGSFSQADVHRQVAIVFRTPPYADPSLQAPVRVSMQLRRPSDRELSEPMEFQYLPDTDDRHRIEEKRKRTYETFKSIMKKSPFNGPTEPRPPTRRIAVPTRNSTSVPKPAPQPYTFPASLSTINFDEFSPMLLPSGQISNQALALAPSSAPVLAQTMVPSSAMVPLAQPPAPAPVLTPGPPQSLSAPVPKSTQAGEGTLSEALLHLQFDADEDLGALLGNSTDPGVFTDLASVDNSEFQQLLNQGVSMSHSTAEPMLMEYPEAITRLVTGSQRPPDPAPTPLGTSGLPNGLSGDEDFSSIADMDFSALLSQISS

Activity [4] | inhibition [5] | inhibition [6] | SMILES | Activity [1] | Activity [2] | inhibition (INH) [3] | Activity [7] | inhibition (INH) [8] | inhibition (INH) (Mus musculus) | inhibition in vivo at 10 mg/kg (Rattus norvegicus)
inactive | inactive | Active | O=c1cc(-c2ccc(O)cc2)oc2c([C@@H]3O[C@H](CO)[C@@H](O)[C@H](O)[C@H]3O)c(O)c([C@@H]3O[C@H](CO)[C@@H](O)[C@H](O)[C@H]3O)c(O)c12 | Toxic | 62% | 70% | Active | 16% |  | 
 |  |  | COc1ccc2c(c1)c(CC(=O)O)c(C)n2C(=O)c1ccc(Cl)cc1 [INDOMETHACIN] |  |  |  |  |  | 87.3% | 38.4%
